Reference: PMC7782793, “Hydroxamic acid-modified peptide microarrays for profiling isozyme-selective interactions and inhibition of histone deacetylases” (Nature Communications, 2021)
Where “and” joins values, the source holds several entries; their conditions need not be identical. Equal values may be shown once. Marks after values point to notes of the source that are not given here. Non-standard residues stand in square brackets, D forms with d. Residues, ends and D or L forms follow the SMILES beside them. *: point of attachment. Asu = N[C@@H](CCCCCC(=O)O)C(=O)O; NHOH = ON*

Tests used:
HDAC1 [1] = biological target: T1, HDAC1 (Homo sapiens, UniProt Q13547); assay: Recombinant HDAC µSPOT microarray binding assay;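 note: slides with spotted peptides incubated with six HDAC concentrations in HEPES buffer pH 7.4, spot intensities fitted by four-parameter logistic, EC50 as enzyme concentration giving half-maximal binding signal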
T1 construct: HDAC1 (full length, C-terminal His tag, C-terminal FLAG tag, BPS Bioscience, cat. #: 50051); FLAG (C); purchased BPS Bioscience 50051
Procedure: Experiments were performed twice, data were obtained with Array Analyze software (Active Motif), and data analysis and representation were performed with the GraphPad Prism 7 software. Outliers were curated manually and data were fitted to nonlinear regression [log(agonist) vs. response—variable slope (four parameters)]. […] Non-sigmoidal curves were denoted as not determined (N.D.) The pEC50 values were determined as the concentration of HDAC enzyme required for half-maximal binding signal.

HDAC3/NCoR2 [2] = biological target: T2, HDAC3/NCoR2 (Homo sapiens, UniProt O15379); assay: Recombinant HDAC µSPOT microarray binding assay;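 note: peptide spots on cellulose slides incubated with rising HDAC enzyme concentrations, imaged together, four-parameter logistic fit, EC50 is enzyme concentration giving half-maximal binding signal, two experiments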
T2 construct: HDAC3/NCoR2 (full length, C-terminal His tag, NCoR2 N-terminal GST tag); purchased BPS Bioscience 50003

HDAC1 [3] = biological target: T1, HDAC1; assay: HDAC inhibition assay (fluorogenic, Ac-Leu-Gly-Lys(Ac)-AMC); type: biochemical; conditions: for HDAC1 dose-response data (relative enzyme activity), Fig. 6 + S. Fig. 10: duplicate columns
HDAC2 = biological target: T3, HDAC2 (Homo sapiens, UniProt Q92769); assay: as above; type: biochemical; conditions: for HDAC2 dose-response data (relative enzyme activity), Fig. 6 + S. Fig. 10: duplicate columns
T3 construct: HDAC2 (full length, C-terminal His tag, BPS Bioscience, cat. #: 50002); purchased BPS Bioscience 50002

HDAC3/NCoR2 [4] = biological target: T2, HDAC3/NCoR2; assay: as above; type: biochemical; conditions: for HDAC3 dose-response data (relative enzyme activity), Fig. 6 + S. Fig. 10: duplicate columns
HDAC8 = biological target: T4, HDAC8 (Homo sapiens, UniProt Q9BY41); assay: HDAC inhibition assay (fluorogenic, Ac-Leu-Gly-Lys(Tfa)-AMC); type: biochemical; conditions: for HDAC8 dose-response data (relative enzyme activity, replicate values), Fig. 6 + S. Fig. 10: two replicate columns per inhibitor; for HDAC8 dose-response data (relative enzyme activity), Fig. 6 + S. Fig. 10: duplicate columns
T4 construct: HDAC8 (full length, C-terminal His tag, BPS Bioscience, cat. #: 50008); purchased BPS Bioscience 50008
T4 sequence (Q9BY41 1-377): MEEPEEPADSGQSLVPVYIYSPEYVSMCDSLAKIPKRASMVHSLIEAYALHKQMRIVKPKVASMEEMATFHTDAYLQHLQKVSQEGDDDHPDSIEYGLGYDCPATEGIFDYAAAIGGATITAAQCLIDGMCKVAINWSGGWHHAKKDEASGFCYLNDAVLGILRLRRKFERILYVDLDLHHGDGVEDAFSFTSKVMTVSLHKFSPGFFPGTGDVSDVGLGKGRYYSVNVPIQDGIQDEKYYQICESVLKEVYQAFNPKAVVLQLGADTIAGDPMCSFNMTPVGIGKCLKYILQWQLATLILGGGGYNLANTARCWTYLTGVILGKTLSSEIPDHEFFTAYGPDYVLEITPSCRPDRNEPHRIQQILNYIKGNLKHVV

HDAC6 = biological target: T5, HDAC6 (Homo sapiens, UniProt Q9UBN7); assay: HDAC inhibition assay (fluorogenic, Ac-Leu-Gly-Lys(Ac)-AMC); type: biochemical; conditions: for residual enzymatic activity relative to control wells: HDAC6, replicates
T5 construct: HDAC6 (full length, BPS Bioscience, cat. #: 50056); purchased BPS Bioscience 50056
T5 sequence (Q9UBN7 1-1215): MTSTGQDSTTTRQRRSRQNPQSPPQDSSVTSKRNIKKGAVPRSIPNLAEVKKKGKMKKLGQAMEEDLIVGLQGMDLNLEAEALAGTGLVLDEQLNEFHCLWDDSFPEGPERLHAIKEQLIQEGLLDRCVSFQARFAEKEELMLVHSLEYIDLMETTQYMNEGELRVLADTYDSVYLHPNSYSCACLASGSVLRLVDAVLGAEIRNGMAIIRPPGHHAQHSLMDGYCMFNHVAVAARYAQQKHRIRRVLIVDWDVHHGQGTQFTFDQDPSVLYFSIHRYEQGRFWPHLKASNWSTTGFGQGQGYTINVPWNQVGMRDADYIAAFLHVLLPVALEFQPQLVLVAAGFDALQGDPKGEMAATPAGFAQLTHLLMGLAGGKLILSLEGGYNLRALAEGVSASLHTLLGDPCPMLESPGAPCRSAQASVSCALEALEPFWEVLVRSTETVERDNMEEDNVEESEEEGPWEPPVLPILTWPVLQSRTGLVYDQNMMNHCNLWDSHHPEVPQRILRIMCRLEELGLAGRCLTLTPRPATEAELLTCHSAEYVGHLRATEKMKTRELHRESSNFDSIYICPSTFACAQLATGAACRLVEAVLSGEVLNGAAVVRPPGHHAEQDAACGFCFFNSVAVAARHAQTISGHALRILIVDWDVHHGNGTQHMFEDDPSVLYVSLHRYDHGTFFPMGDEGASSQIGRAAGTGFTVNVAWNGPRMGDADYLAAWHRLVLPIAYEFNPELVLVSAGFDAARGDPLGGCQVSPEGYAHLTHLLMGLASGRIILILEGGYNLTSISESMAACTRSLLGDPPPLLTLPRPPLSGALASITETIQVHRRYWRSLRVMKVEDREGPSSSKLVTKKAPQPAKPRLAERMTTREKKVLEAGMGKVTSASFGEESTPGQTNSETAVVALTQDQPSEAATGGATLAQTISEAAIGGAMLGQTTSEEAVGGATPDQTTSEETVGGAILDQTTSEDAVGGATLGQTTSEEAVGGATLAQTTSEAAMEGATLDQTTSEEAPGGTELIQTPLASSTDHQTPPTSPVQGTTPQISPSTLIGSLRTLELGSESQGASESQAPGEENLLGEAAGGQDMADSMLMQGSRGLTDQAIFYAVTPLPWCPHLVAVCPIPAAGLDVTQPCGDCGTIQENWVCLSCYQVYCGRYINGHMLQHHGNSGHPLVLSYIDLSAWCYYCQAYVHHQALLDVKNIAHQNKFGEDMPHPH

HDAC4 = biological target: T6, HDAC4 (Homo sapiens, UniProt P56524); assay: HDAC inhibition assay (fluorogenic, Ac-Leu-Gly-Lys(Tfa)-AMC); type: biochemical; conditions: 2 internal replicates
T6 construct: purchased BPS Bioscience 50004

[5] = log[inhibitor(M)] -10,5850266520292*, whole line marked with asterisks

T2 sequence (O15379 whole entry): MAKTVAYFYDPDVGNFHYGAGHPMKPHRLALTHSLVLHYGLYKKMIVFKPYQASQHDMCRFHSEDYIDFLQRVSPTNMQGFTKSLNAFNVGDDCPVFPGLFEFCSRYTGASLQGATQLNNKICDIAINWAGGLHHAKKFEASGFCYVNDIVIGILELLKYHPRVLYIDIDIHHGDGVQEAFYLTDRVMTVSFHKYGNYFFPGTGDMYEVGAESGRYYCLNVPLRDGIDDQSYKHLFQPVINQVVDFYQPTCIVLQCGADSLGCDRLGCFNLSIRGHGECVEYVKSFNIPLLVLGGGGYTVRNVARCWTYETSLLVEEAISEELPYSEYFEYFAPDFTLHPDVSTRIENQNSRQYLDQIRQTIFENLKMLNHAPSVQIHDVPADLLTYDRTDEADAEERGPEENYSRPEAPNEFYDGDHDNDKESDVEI
T2 sequence (Q9Y618 389-480 partner limits assumed): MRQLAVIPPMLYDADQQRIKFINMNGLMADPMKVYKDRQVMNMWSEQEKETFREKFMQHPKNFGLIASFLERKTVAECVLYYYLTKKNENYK
T6 sequence (P56524 627-1084): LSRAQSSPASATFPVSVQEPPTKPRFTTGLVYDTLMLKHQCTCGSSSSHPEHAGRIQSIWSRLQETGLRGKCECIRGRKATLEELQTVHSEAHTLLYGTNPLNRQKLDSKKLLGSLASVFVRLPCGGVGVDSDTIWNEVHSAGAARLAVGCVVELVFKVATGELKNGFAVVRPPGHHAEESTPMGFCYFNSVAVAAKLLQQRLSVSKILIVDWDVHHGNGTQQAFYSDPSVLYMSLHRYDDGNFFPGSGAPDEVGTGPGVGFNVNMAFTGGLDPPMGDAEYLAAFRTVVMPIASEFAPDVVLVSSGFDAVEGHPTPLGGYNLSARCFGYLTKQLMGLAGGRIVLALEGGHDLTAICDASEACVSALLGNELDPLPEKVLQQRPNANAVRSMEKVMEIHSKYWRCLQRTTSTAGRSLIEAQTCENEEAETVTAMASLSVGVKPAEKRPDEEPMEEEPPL
T3 sequence (Q92769 whole entry): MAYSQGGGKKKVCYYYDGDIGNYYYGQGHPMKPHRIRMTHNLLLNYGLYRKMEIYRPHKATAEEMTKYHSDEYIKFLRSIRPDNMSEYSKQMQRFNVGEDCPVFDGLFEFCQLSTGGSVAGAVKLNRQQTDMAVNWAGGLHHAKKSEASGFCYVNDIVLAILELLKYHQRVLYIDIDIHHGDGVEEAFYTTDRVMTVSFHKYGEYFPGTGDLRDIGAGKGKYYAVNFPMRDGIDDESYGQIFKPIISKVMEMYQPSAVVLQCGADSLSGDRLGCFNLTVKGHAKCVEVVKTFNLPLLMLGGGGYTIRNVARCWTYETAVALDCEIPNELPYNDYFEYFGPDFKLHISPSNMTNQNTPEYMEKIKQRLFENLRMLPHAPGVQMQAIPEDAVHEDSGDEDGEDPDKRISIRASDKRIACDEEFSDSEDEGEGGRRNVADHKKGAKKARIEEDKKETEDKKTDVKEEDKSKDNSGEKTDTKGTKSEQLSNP
T1 sequence (Q13547 whole entry): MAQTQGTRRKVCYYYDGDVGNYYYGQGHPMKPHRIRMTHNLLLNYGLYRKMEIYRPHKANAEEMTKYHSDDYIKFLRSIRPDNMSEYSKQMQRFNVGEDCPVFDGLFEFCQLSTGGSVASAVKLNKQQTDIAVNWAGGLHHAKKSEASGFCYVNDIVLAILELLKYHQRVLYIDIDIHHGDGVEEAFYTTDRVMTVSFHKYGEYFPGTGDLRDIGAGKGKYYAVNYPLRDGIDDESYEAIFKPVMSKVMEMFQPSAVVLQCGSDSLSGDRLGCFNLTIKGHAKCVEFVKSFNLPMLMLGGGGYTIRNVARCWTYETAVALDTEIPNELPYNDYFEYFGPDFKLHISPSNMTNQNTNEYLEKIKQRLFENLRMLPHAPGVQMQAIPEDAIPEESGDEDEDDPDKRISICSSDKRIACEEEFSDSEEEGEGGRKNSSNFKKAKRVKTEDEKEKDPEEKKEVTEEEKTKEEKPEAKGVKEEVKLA

CC(=O)N[C@@H](C)C(=O)N[C@H](C(=O)NCC(=O)NCC(=O)N[C@H](C(=O)N[C@@H](CCCCCC(=O)NO)C(=O)N[C@@H](CCCCN)C(=O)N1CCC[C@H]1C(=O)N[C@@H](Cc1c[nH]cn1)C(=O)N[C@@H](CCCNC(=N)N)C(=O)N[C@@H](Cc1ccc(O)cc1)C(=O)N[C@@H](CCCNC(=N)N)C(=O)N1CCC[C@H]1C(=O)NCC(=O)N[C@H](C(=O)N[C@H](C(=O)N[C@@H](Cc1c[nH]c2ccccc12)C(N)=O)C(C)C)[C@@H](C)O)C(C)C)[C@@H](C)O [15a] (Ac-ATGGV[Asu](NHOH)KPHRYRPGTVW-NH2)
EC50 (HDAC1 [1]): 0.00501 µM
EC50 (HDAC3/NCoR2 [2]): 0.0024 µM
Ki (HDAC1 [3]): 0.07 ± 0.001 µM
HDAC1 dose-response data (relative enzyme activity), Fig. 6 + S. Fig. 10 (HDAC1 [3]; log[inhibitor(M)] -4.30103): 2.2617 and 2.685
HDAC1 dose-response data (relative enzyme activity), Fig. 6 + S. Fig. 10 (HDAC1 [3]; log[inhibitor(M)] -6.39794): 54.2155 and 43.2283
HDAC1 dose-response data (relative enzyme activity), Fig. 6 + S. Fig. 10 (HDAC1 [3]; log[inhibitor(M)] -7.09691): 91.0731 and 84.0543
HDAC1 dose-response data (relative enzyme activity), Fig. 6 + S. Fig. 10 (HDAC1 [3]; log[inhibitor(M)] -7.79588): 111.87 and 112.408
HDAC1 dose-response data (relative enzyme activity), Fig. 6 + S. Fig. 10 (HDAC1 [3]; log[inhibitor(M)] -8.49485): 111.243 and 114.065
HDAC1 dose-response data (relative enzyme activity), Fig. 6 + S. Fig. 10 (HDAC1 [3]; log[inhibitor(M)] -9.19382): 105.717 and 111.571
HDAC1 dose-response data (relative enzyme activity), Fig. 6 + S. Fig. 10 (HDAC1 [3]; log[inhibitor(M)] -9.89279): 103.869 and 106.196
HDAC1 dose-response data (relative enzyme activity), Fig. 6 + S. Fig. 10 (HDAC1 [3]; [5]): 100,2561* and 100,875*
HDAC2 dose-response data (relative enzyme activity), Fig. 6 + S. Fig. 10 (HDAC2; log[inhibitor(M)] -5): 7.156 and 8.696
HDAC2 dose-response data (relative enzyme activity), Fig. 6 + S. Fig. 10 (HDAC2; log[inhibitor(M)] -5.69897): 27.5449 and 22.7201
HDAC2 dose-response data (relative enzyme activity), Fig. 6 + S. Fig. 10 (HDAC2; log[inhibitor(M)] -7.79588): 107.892 and 100.231
HDAC2 dose-response data (relative enzyme activity), Fig. 6 + S. Fig. 10 (HDAC2; [5]): 104,1863* and 103,2461*
Ki (HDAC2; resynthesized peptide in solution, Cheng-Prusoff, n = 2): 0.0702 ± 0.0005 µM
Ki (HDAC3/NCoR2 [4]): 0.0217 ± 0.0002 µM
HDAC3 dose-response data (relative enzyme activity), Fig. 6 + S. Fig. 10 (HDAC3/NCoR2 [4]; log[inhibitor(M)] -4.30103): 0.4402 and 0.4708
HDAC3 dose-response data (relative enzyme activity), Fig. 6 + S. Fig. 10 (HDAC3/NCoR2 [4]; log[inhibitor(M)] -5): 1.6435 and 1.312
HDAC3 dose-response data (relative enzyme activity), Fig. 6 + S. Fig. 10 (HDAC3/NCoR2 [4]; log[inhibitor(M)] -5.69897): 7.236 and 5.348
HDAC3 dose-response data (relative enzyme activity), Fig. 6 + S. Fig. 10 (HDAC3/NCoR2 [4]; log[inhibitor(M)] -6.39794): 28.5726 and 19.4648
HDAC3 dose-response data (relative enzyme activity), Fig. 6 + S. Fig. 10 (HDAC3/NCoR2 [4]; log[inhibitor(M)] -7.09691): 64.2255 and 50.9194
HDAC3 dose-response data (relative enzyme activity), Fig. 6 + S. Fig. 10 (HDAC3/NCoR2 [4]; log[inhibitor(M)] -7.79588): 97.9959 and 83.1339
HDAC3 dose-response data (relative enzyme activity), Fig. 6 + S. Fig. 10 (HDAC3/NCoR2 [4]; log[inhibitor(M)] -8.49485): 112.173 and 97.0745
HDAC3 dose-response data (relative enzyme activity), Fig. 6 + S. Fig. 10 (HDAC3/NCoR2 [4]; log[inhibitor(M)] -9.19382): 112.635 and 104.337
HDAC3 dose-response data (relative enzyme activity), Fig. 6 + S. Fig. 10 (HDAC3/NCoR2 [4]; log[inhibitor(M)] -9.89279): 114.089 and 99.1792
Ki (HDAC8): 1.68 ± 0.013 µM
HDAC8 dose-response data (relative enzyme activity, replicate values), Fig. 6 + S. Fig. 10 (HDAC8; Inhibitor conc [M] -8.49485 (log)): 104.092 and 106.342
HDAC8 dose-response data (relative enzyme activity, replicate values), Fig. 6 + S. Fig. 10 (HDAC8; Inhibitor conc [M] -9.19382 (log)): 107.088 and 104.012
HDAC8 dose-response data (relative enzyme activity, replicate values), Fig. 6 + S. Fig. 10 (HDAC8; Inhibitor conc [M] given as -7.09691 (log)): 97.5487 and 105.051
HDAC8 dose-response data (relative enzyme activity, replicate values), Fig. 6 + S. Fig. 10 (HDAC8; Inhibitor conc [M] given as -7.79588 (log)): 103.383 and 113.008
HDAC8 dose-response data (relative enzyme activity, replicate values), Fig. 6 + S. Fig. 10 (HDAC8; Inhibitor conc [M] given as -9.89279 (log)): 103.125 and 102.688
HDAC8 dose-response data (relative enzyme activity), Fig. 6 + S. Fig. 10 (HDAC8; Inhibitor conc [M] -4.30103): 7.884 and 8.121
HDAC8 dose-response data (relative enzyme activity), Fig. 6 + S. Fig. 10 (HDAC8; Inhibitor conc [M] -5): 24.6267 and 25.2578
HDAC8 dose-response data (relative enzyme activity), Fig. 6 + S. Fig. 10 (HDAC8; Inhibitor conc [M] -5.69897): 57.0341 and 59.1741
HDAC8 dose-response data (relative enzyme activity), Fig. 6 + S. Fig. 10 (HDAC8; Inhibitor conc [M] -6.39794): 87.2467 and 93.8953
residual enzymatic activity relative to control wells (HDAC6; log[inhibitor(M)] -4.30103): 3.78 and 1.49
residual enzymatic activity relative to control wells (HDAC6; log[inhibitor(M)] -5): 9.7 and 2.71
residual enzymatic activity relative to control wells (HDAC6; log[inhibitor(M)] -5.69897): 22.49 and 13.07
residual enzymatic activity relative to control wells (HDAC6; log[inhibitor(M)] -6.39794): 47.9 and 35.05
residual enzymatic activity relative to control wells (HDAC6; log[inhibitor(M)] -7.09691): 78.65 and 63.46
residual enzymatic activity relative to control wells (HDAC6; log[inhibitor(M)] -7.79588): 92.99 and 81.77
residual enzymatic activity relative to control wells (HDAC6; log[inhibitor(M)] -8.49485): 99.83 and 89.79
residual enzymatic activity relative to control wells (HDAC6; log[inhibitor(M)] -9.19382): 102.59 and 95.48
residual enzymatic activity relative to control wells (HDAC6; log[inhibitor(M)] -9.89279): 101.36 and 96.27
residual enzymatic activity relative to control wells (HDAC6; log[inhibitor(M)] -10.585): 101,22* and 96,07*
Ki (HDAC6; in solution): 0.114 ± 0.002 µM
residual enzymatic activity relative to control wells (HDAC4; inhibitor 5 µM): 108.47
remaining activity at 5 µM (HDAC4; inhibitor 5 µM, read-out: residual enzymatic activity relative to control wells): 98.7%
residual enzymatic activity relative to control wells (HDAC4; inhibitor 50 µM): 74.7
remaining activity at 50 µM (HDAC4; inhibitor 50 µM, read-out: residual enzymatic activity relative to control wells): 89.4%
